Laboratory results reported in US7163949B1, “4-phenyl substituted tetrahydroisoquinolines and use thereof” (AMR Technology, Inc., priority 1999, dated 2007).
Where a name gives a salt, the structure may show the parent alone.

System: not given
Details: not given

SMILES | melting point
CNCc1ccc2c(c1F)CN(C)CC2c1ccccc1 (stereo not shown) (as salt: HCl) | 185 to 205 °C
CN1Cc2cc(CO)ccc2C(c2ccccc2)C1 (stereo not shown) (as salt: HCl) | 237 to 240 °C (dec.)
Cc1ccc2c(c1O)CN(C)CC2c1ccccc1 (stereo not shown) | 260 to 261 °C
FCc1ccc2c(c1CF)CN(CF)CC2c1ccccc1 (stereo not shown) | 108 to 113 °C
Cc1cc(F)c2c(c1)C(C)N(C)C(F)C2c1ccccc1 (stereo not shown) (as salt: HCl) | 194 to 197 °C (dec.)
CN1Cc2c(CO)cccc2C(c2ccccc2)C1 (stereo not shown) | 144 to 146 °C
CN1Cc2cc(OC(F)(F)F)ccc2C(c2ccccc2)C1 (stereo not shown) | 150 to 151 °C (dec.)
Cc1ccc2c(c1F)CN(C)CC2c1ccccc1 (stereo not shown) (as salt: hydrochloride) | 215 to 216 °C
Cc1c(F)ccc2c1CN(C)CC2c1ccccc1 (stereo not shown) | 185 to 186 °C
Cc1ccc2c(c1)CN(C)CC2c1ccc(F)c(C)c1 (stereo not shown) | 174 to 175 °C
Cc1ccc2c(c1)C(C)N(C)CC2c1ccccc1 (stereo not shown) | 87 to 89 °C
CN1Cc2cc(OCc3ccccc3)ccc2C(c2ccccc2)C1 (stereo not shown) | 155 to 156 °C
CN1Cc2cc(C(F)(F)F)ccc2C(c2ccccc2)C1 (stereo not shown) | 257 to 275 °C
COc1c(C)ccc2c1CN(C)CC2c1ccccc1 (stereo not shown) | 130 to 131 °C
CN1Cc2cc(Oc3ccccc3)ccc2C(c2ccccc2)C1 (stereo not shown) | 175 to 176 °C (dec.)

System: dopamine transporter protein over the norepinephrine transporter protein
Details: selectivity for dopamine transporter protein over norepinephrine transporter protein; cited from earlier work

SMILES | DAT/NET Ki ratio
COC(=O)C(c1ccccc1)C1CCCCN1 (stereo not shown) [Methylphenidate] | 0.1
